How the values were obtained:
[1] = Stability in human liver microsomes assessed as parent compound remaining at 0.5 uM in presence of NADPH by MS/MS analysis; format: ADME, Microsome; conditions: read-out: Stability
[2] = Stability in rat liver microsomes assessed as parent compound remaining at 0.5 uM in presence of NADPH by MS/MS analysis; format: ADME, Microsome; conditions: read-out: Stability
[3] = Stability in mouse liver microsomes assessed as parent compound remaining at 0.5 uM in presence of NADPH by MS/MS analysis; format: ADME, Microsome; conditions: read-out: Stability
[4] = Permeability of compound at pH 7.4; format: ADME; conditions: not told, read-out: permeability
[5] = AUC in C57BL6 mouse at 2 mg/kg, iv qd administered as bolus dose after 24 hrs by LC-MS/MS analysis; format: ADME, organism-based; design: time < 24 hr, dose 2 mg/kg, route intravenous; conditions: in vivo
[6] = Clearance in C57BL6 mouse at 2 mg/kg, iv qd administered as bolus dose after 24 hrs by LC-MS/MS analysis; format: ADME, organism-based; conditions: in vivo
[7] = Volume of distribution at steady state in C57BL6 mouse at 2 mg/kg, iv qd administered as bolus dose after 24 hrs by LC-MS/MS analysis; format: ADME, organism-based; conditions: in vivo, read-out: Vdss
[8] = Cmax in C57BL6 mouse at 30 mg/kg, po qd via gavage after 24 hrs by LC-MS/MS analysis; format: ADME, organism-based; design: dose 30 mg/kg, route oral; conditions: in vivo
[9] = Tmax in C57BL6 mouse at 30 mg/kg, po qd via gavage after 24 hrs by LC-MS/MS analysis; format: ADME, organism-based; conditions: in vivo
[10] = AUC in C57BL6 mouse at 30 mg/kg, po qd via gavage after 24 hrs by LC-MS/MS analysis; format: ADME, organism-based; design: time < 24 hr, dose 30 mg/kg, route oral; conditions: in vivo
[11] = biological target: T1, Nuclear receptor ROR-gamma (Mus musculus, UniProt P51450); test: Agonist activity at RORgammat in mouse whole blood assessed as induction of IL-17A expression; format: tissue-based
T1 sequence (P51450 whole entry): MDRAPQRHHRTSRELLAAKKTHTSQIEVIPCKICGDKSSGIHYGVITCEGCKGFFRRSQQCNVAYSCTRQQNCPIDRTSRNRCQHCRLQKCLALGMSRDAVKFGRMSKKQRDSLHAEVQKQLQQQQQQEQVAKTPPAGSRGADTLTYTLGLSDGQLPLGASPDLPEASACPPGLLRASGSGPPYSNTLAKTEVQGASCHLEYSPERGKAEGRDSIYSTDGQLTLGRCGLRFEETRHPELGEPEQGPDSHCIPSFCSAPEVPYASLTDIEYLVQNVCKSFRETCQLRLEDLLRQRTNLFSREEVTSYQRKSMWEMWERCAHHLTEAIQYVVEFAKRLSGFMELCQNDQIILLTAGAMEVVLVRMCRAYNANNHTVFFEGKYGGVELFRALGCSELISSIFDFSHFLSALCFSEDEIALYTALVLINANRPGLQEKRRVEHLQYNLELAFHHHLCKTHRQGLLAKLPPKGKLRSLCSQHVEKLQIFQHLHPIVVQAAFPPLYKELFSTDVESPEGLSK

[12] = Drug level in mouse MC38 cells allografted C57BL6 mouse blood at 10 mg/kg, po BID and measured after 24 hrs; format: ADME, organism-based; conditions: whole blood, read-out: Drug uptake
[13] = Half life in mouse hepatocytes; format: ADME, cell-based, Hepatocyte
[14] = Drug metabolism in mouse hepatocytes assessed as UGT-mediated metabolism by measuring half life; format: ADME, cell-based

| remaining at 0.5 µM [1] | remaining at 0.5 µM [2] | remaining at 0.5 µM [3] | Compound | also measured |
| --- | --- | --- | --- | --- |
| 1% | 4% | 51% | O=C(N1CC[C@@]2(S(=O)(=O)c3ccc(F)cc3)c3ccc(OCc4c(F)cccc4C(F)(F)F)cc3CC[C@@H]12)C1(O)CCS(=O)(=O)CC1 | – |
| 80% | 48% | 100% | C[C@]1(C(=O)N2CC[C@@]3(S(=O)(=O)c4ccc(F)cc4)c4ccc(OCc5c(F)cccc5C(F)(F)F)cc4CC[C@@H]23)CC[C@H](C(=O)O)CC1 | Papp [4]: 40.6 ×10⁻⁶ cm/s; AUC at 24 h [5]: 6.5 µM·h; clearance [6]: 6.7 mL/min/kg; Vd [7]: 1.1 L/kg; Cmax [8]: 61 µM; Tmax [9]: 0.5 h; AUC at 24 h [10]: 275 µM·h; EC50 [11]: 380 nM; concentration at 24 h [12]: 0.1 µM |
| 3% | 33% | 57% | NC(=O)N1CCC(C(=O)N2CC[C@@]3(S(=O)(=O)c4ccc(F)cc4)c4ccc(OCc5c(F)cccc5C(F)(F)F)cc4CC[C@@H]23)CC1 | – |
| 55% | 67% | 82% | O=C([C@H]1CC[C@H](c2nnn[nH]2)CC1)N1CC[C@@]2(S(=O)(=O)c3ccc(F)cc3)c3ccc(OCc4c(F)cccc4C(F)(F)F)cc3CC[C@@H]12 | – |
| 1% | 14% | 14% | O=C(CN1CCS(=O)(=O)CC1)N1CC[C@@]2(S(=O)(=O)c3ccc(F)cc3)c3ccc(OCc4c(F)cccc4C(F)(F)F)cc3CC[C@@H]12 | – |
| 1% | 18% | 52% | O=C(C1CCS(=O)(=O)CC1)N1CC[C@@]2(S(=O)(=O)c3ccc(F)cc3)c3ccc(OCc4c(F)cccc4C(F)(F)F)cc3CC[C@@H]12 | – |
| 97% | 65% | 100% | O=C(O)[C@H]1CC[C@H](C(=O)N2CC[C@@]3(S(=O)(=O)c4ccc(F)cc4)c4ccc(OCc5c(F)cccc5C(F)(F)F)cc4CC[C@@H]23)CC1 | Papp [4]: 10.1 ×10⁻⁶ cm/s; AUC at 24 h [5]: 5.4 µM·h; clearance [6]: 9.1 mL/min/kg; Vd [7]: 1.8 L/kg; Cmax [8]: 38 µM; Tmax [9]: 1 h; AUC at 24 h [10]: 103 µM·h; half-life [13]: > 2 h; half-life [14]: > 2 h |
| 17% | 39% | – | NC(=O)[C@H]1CC[C@H](C(=O)N2CC[C@@]3(S(=O)(=O)c4ccc(F)cc4)c4ccc(OCc5c(F)cccc5C(F)(F)F)cc4CC[C@@H]23)CC1 | – |
| 2% | 30% | 41% | CS(=O)(=O)N[C@H]1CC[C@H](C(=O)N2CC[C@@]3(S(=O)(=O)c4ccc(F)cc4)c4ccc(OCc5c(F)cccc5C(F)(F)F)cc4CC[C@@H]23)CC1 | – |

From ChEMBL document CHEMBL4627376, “Substituted benzyloxytricyclic compounds as retinoic acid-related orphan receptor gamma t (RORγt) agonists” (Bioorg Med Chem Lett, 2020)
